This experiment deals with human α7 nAChR (Homo sapiens, UniProt P36544). Briefly: cell-based. The following applies: EC50 of human α7nAChR(nM), HEK293T/17 cells transfected with human α7 nAChR; PNU-120596 added; relative to epibatidine 1 μM positive control.
Chain of human α7 nAChR (P36544 23-502): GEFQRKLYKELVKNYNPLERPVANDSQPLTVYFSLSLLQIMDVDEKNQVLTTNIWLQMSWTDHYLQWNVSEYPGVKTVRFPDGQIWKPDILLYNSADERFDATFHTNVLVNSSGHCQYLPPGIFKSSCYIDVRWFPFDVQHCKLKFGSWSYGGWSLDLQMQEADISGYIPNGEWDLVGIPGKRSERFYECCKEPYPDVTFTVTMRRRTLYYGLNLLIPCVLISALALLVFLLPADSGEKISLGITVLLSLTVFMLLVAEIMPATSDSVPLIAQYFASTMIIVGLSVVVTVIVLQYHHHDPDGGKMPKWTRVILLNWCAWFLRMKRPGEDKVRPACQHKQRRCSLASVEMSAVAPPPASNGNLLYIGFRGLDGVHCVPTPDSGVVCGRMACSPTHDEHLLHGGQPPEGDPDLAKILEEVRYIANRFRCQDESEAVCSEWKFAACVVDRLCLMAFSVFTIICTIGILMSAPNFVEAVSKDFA
Regarding `CSc1ccc(-n2cc(C(=O)NC3CN4CCC3CC4)ccc2=O)cc1` (centres unmarked) [Example 76, N-(1-azabicyclo[2.2.2]octan-3-yl)-1-[4-(methylthio)phenyl]-6-oxo-3-pyridinecarboxamide], the EC50 was 100 to 500 nM.

With `CSc1ccccc1-n1cc(C(=O)N[C@H]2CN3CCC2CC3)ccc1=O` [Example 78, N-[(3R)-1-azabicyclo[2.2.2]octan-3-yl]-1-[2-(methylthio)phenyl]-6-oxo-3-pyridinecarboxamide], the concentration giving a half-maximal response (EC50) was less than 100 nM.

The compound `CSc1ccccc1-n1cc(C(=O)N[C@@H]2CN3CCC2CC3)ccc1=O` [Example 79, N-[(3S)-1-azabicyclo[2.2.2]octan-3-yl]-1-[2-(methylthio)phenyl]-6-oxo-3-pyridinecarboxamide] displayed an EC50 of 100 to 500 nM.

Regarding `CCSc1ccccc1-n1cc(C(=O)NC2CN3CCC2CC3)ccc1=O` (centres unmarked) [Example 80, N-(1-azabicyclo[2.2.2]octan-3-yl)-1-[2-(ethylthio)phenyl]-6-oxo-3-pyridinecarboxamide], the concentration for a half-maximal effect (EC50) is less than 100 nM.

As to `CC(C)Sc1ccccc1-n1cc(C(=O)NC2CN3CCC2CC3)ccc1=O` (centres unmarked) [Example 81, N-(1-azabicyclo[2.2.2]octan-3-yl)-6-oxo-1-[2-(propan-2-ylthio)phenyl]-3-pyridinecarboxamide], the EC50 is 100 to 500 nM.

In the case of `O=C(NC1CN2CCC1CC2)c1ccc(=O)n(-c2ccccc2SCc2ccccc2)c1` (centres unmarked) [Example 82, N-(1-azabicyclo[2.2.2]octan-3-yl)-6-oxo-1-[2-(phenylmethylthio)phenyl]-3-pyridinecarboxamide], the EC50 lay in the range of 100 to 500 nM.

`CSc1ccc(C(F)(F)F)cc1-n1cc(C(=O)NC2CN3CCC2CC3)ccc1=O` (centres unmarked) [Example 83, N-(1-azabicyclo[2.2.2]octan-3-yl)-1-[2-(methylthio)-5-(trifluoromethyl)phenyl]-6-oxo-3-pyridinecarboxamide] showed a concentration giving a half-maximal response (EC50) of 500 to 1000 nM.

`CCSc1cc(OC)ccc1-n1cc(C(=O)NC2CN3CCC2CC3)ccc1=O` (centres unmarked) [Example 85, N-(1-azabicyclo[2.2.2]octan-3-yl)-1-[2-(ethylthio)-4-methoxyphenyl]-6-oxo-3-pyridinecarboxamide] registered an EC50 of less than 100 nM.

The compound `CSc1cc(Cl)ccc1-n1cc(C(=O)N[C@H]2CN3CCC2CC3)ccc1=O` [Example 87, N-[(3R)-1-azabicyclo[2.2.2]octan-3-yl]-1-[4-chloro-2-(methylthio)phenyl]-6-oxo-3-pyridinecarboxamide] registered an EC50 of less than 100 nM.

In turn, `CSc1cc(Cl)ccc1-n1cc(C(=O)N[C@@H]2CN3CCC2CC3)ccc1=O` [Example 88, N-[(3S)-1-azabicyclo[2.2.2]octan-3-yl]-1-[4-chloro-2-(methylthio)phenyl]-6-oxo-3-pyridinecarboxamide] had an EC50 of 100 to 500 nM.

`CSc1cc(C)ccc1-n1cc(C(=O)N[C@H]2CN3CCC2CC3)ccc1=O` [Example 90, N-[(3R)-1-azabicyclo[2.2.2]octan-3-yl]-1-[4-methyl-2-(methylthio)phenyl]-6-oxo-3-pyridinecarboxamide] returned an EC50 of less than 100 nM.

With `CC(C)Sc1cc(Cl)ccc1-n1cc(C(=O)NC2CN3CCC2CC3)ccc1=O` (centres unmarked) [Example 93, N-(1-azabicyclo[2.2.2]octan-3-yl)-1-[4-chloro-2-(propan-2-ylthio)phenyl]-6-oxo-3-pyridinecarboxamide], the EC50 lay in the range of 100 to 500 nM.

With `CCCc1ccc(-n2cc(C(=O)NC3CN4CCC3CC4)ccc2=O)c(SC)c1` (centres unmarked) [Example 94, N-(1-azabicyclo[2.2.2]octan-3-yl)-1-[2-(methylthio)-4-propylphenyl]-6-oxo-3-pyridinecarboxamide], the 50% effective concentration (EC50) was less than 100 nM.

`O=C(NC1CN2CCC1CC2)c1ccc(=O)n(-c2ccccc2Sc2ccccc2)c1` (centres unmarked) [Example 95, N-(1-azabicyclo[2.2.2]octan-3-yl)-6-oxo-1-[2-(phenylthio)phenyl]-3-pyridinecarboxamide] displayed an EC50 of less than 100 nM.

In turn, `CSc1cc(C(C)C)ccc1-n1cc(C(=O)NC2CN3CCC2CC3)ccc1=O` (centres unmarked) [Example 96, N-(1-azabicyclo[2.2.2]octan-3-yl)-1-[2-(methylthio)-4-propan-2-ylphenyl]-6-oxo-3-pyridinecarboxamide] yielded an EC50 of less than 100 nM.

`CCSc1cc(Cl)ccc1-n1cc(C(=O)NC2CN3CCC2CC3)ccc1=O` (centres unmarked) [Example 97, N-(1-azabicyclo[2.2.2]octan-3-yl)-1-[4-chloro-2-(ethylthio)phenyl]-6-oxo-3-pyridinecarboxamide]: the EC50 is less than 100 nM.

On to `CCc1ccc(-n2cc(C(=O)NC3CN4CCC3CC4)ccc2=O)c(SC)c1` (centres unmarked) [Example 98, N-(1-azabicyclo[2.2.2]octan-3-yl)-1-[4-ethyl-2-(methylthio)phenyl]-6-oxo-3-pyridinecarboxamide], for which the EC50 is less than 100 nM.

Regarding `CSc1cc(C2CCCCC2)ccc1-n1cc(C(=O)NC2CN3CCC2CC3)ccc1=O` (centres unmarked) [Example 99, N-(1-azabicyclo[2.2.2]octan-3-yl)-1-[4-cyclohexyl-2-(methylthio)phenyl]-6-oxo-3-pyridinecarboxamide], the EC50 was 100 to 500 nM.

`CS(=O)(=O)c1ccc(-n2cc(C(=O)NC3CN4CCC3CC4)ccc2=O)cc1` (centres unmarked) [Example 101, N-(1-azabicyclo[2.2.2]octan-3-yl)-1-(4-methylsulfonylphenyl)-6-oxo-3-pyridinecarboxamide] showed an EC50 of 100 to 500 nM.

Turning to `O=C(NC1CN2CCC1CC2)c1ccc(=O)n(-c2cccc3ccccc23)c1` (centres unmarked) [Example 102, N-(1-azabicyclo[2.2.2]octan-3-yl)-1-(1-naphthalenyl)-6-oxo-3-pyridinecarboxamide], the EC50 was 100 to 500 nM.

In turn, `Cc1cnc(-c2ccccc2-n2cc(C(=O)NC3CN4CCC3CC4)ccc2=O)s1` (centres unmarked) [Example 106, N-(1-azabicyclo[2.2.2]octan-3-yl)-1-[2-(5-methyl-2-thiazolyl)phenyl]-6-oxo-3-pyridinecarboxamide] returned an EC50 of 500 to 1000 nM.

As for `O=C(NC1CN2CCC1CC2)c1ccc(=O)n(-c2ccccc2-c2nc3ccccc3s2)c1` (centres unmarked) [Example 107, N-(1-azabicyclo[2.2.2]octan-3-yl)-1-[2-(1,3-benzothiazole-2-yl)phenyl]-6-oxo-3-pyridinecarboxamide], the EC50 was less than 100 nM.

The compound `Cc1ccc(-c2ccc(-n3cc(C(=O)NC4CN5CCC4CC5)ccc3=O)cc2)s1` (centres unmarked) [Example 108, N-(1-azabicyclo[2.2.2]octan-3-yl)-1-[4-(5-methyl-2-thiophenyl)phenyl]-6-oxo-3-pyridinecarboxamide] gave an EC50 of 100 to 500 nM.

In turn, `O=C(NC1CN2CCC1CC2)c1ccc(=O)n(-c2ccccc2-c2cccs2)c1` (centres unmarked) [Example 110, N-(1-azabicyclo[2.2.2]octan-3-yl)-6-oxo-1-(2-thiophene-2-ylphenyl)-3-pyridinecarboxamide] registered an EC50 of 100 to 500 nM.

`Cc1ccc(-c2ccccc2-n2cc(C(=O)NC3CN4CCC3CC4)ccc2=O)s1` (centres unmarked) [Example 111, N-(1-azabicyclo[2.2.2]octan-3-yl)-1-[2-(5-methyl-2-thiophenyl)phenyl]-6-oxo-3-pyridinecarboxamide]: the EC50 is 100 to 500 nM.

In the case of `CN(C)c1ccc(-n2cc(C(=O)NC3CN4CCC3CC4)ccc2=O)cc1` (centres unmarked) [Example 113, N-(1-azabicyclo[2.2.2]octan-3-yl)-1-[4-dimethylaminophenyl]-6-oxo-3-pyridinecarboxamide], the EC50 lay in the range of 500 to 1000 nM.

By EC50 is commonly meant the concentration at which the effect is half-maximal.

The values above are taken from US8716309B2, “Pharmaceutical composition comprising pyridone derivatives” (priority 2011, dated 2014).
